Patent US9399028B2, “Treatment of drug resistant cancer” (ROCKEFELLER UNIVERSITY (THE), priority 2012, dated 2016)
Where a name gives a salt, the structure may show the parent alone.

Experiments:
[1] = tested on: human melanoma cells (MeWo, MeWo-LM2, HT-144, SK-Mel-2, SK-Mel-334.2); test: Trans-well matrigel cell invasion assay, melanoma cells; type: cell-based
Procedure: Cancer cells were serum-starved in 0.2% FBS DMEM-based media for 12 hours. Trans-well invasion chambers (354480, BD Biosciences, Bedford, Mass.) were pre-equilibrated prior to beginning the assay by adding 0.5 mL of starvation media to the top and bottom chambers. After 30 minutes, the media in the top chamber was removed, and 0.5 mL of media containing 1×10^5 cancer cells was added into each matrigel-coated trans-well insert and incubated at 37° C. for 24 hours. For neutralization antibody and/or recombinant protein experiments, antibody/recombinant protein was added to each well at the start of the assay at the following concentrations as indicated in the figures: 5-40 μg/mL anti-ApoE 1D7 (Heart Institute, University of Ottawa), 5-40 μg/mL anti-IgG (AB-108-C, R&D Systems, Minneapolis, Minn.), 100 μM recombinant human ApoE3 (4696, BioVision, Mountain View, Calif.), and 100 μM BSA (A2153, Sigma-Aldrich). Upon completion of the assay, matrigel-coated inserts were washed with PBS, the cells at the top side of each insert were scraped off, and the inserts were fixed in 4% paraformaldehyde for 15 minutes. The inserts were then cut out and mounted onto slides using VectaShield mounting medium containing DAPI (H-1000, Vector Laboratories, Burlingame, Calif.). The basal side of each insert was imaged using an inverted fluorescence microscope (Zeiss Axiovert 40 CFL) at 5× magnification, taking three representative images for each insert. The number of invaded cells was quantified using ImageJ (NIH).
The cell invasion assay was performed as previously described in detail (Pencheva et al., 2012) using a trans-well matrigel invasion chamber system (354480, BD Biosciences). In brief, various melanoma cells were cultured in the presence of DMSO, GW3965, T0901317, or Bexarotene at 1 μM for 56 hours, after which melanoma cells were switched to starvation media (0.2% FBS) for 16 hours in the presence of each drug. Following starvation, cells were seeded into matrigel-coated trans-well inserts, and the invasion assay was allowed to proceed for 24 hours at 37° C. For ApoE antibody neutralization experiments, 40 μg/mL 1D7 anti-ApoE blocking antibody (Heart Institute, University of Ottawa, Ottawa, Canada) or 40p, g/mL anti-IgG control antibody (AB-108-C, R&D Systems, Minneapolis, Minn.) was added to each trans-well insert at the start of the assay.
The cells were then serum starved for 16 hours in 0.2% FBS media in the presence of each corresponding drug or DMSO. […] Meanwhile, cancer cells were trypsinized and viable cells were counted using trypan blue. […] The basal side of each insert was imaged using an inverted fluorescence microscope (Zeiss Axiovert 40 CFL) at 5× magnification, and the number of DAPI-positive cells was quantified using ImageJ.

[2] = tested on: HUVEC recruited by human melanoma cells; test: Trans-well endothelial recruitment assay; type: cell-based; conditions: for ability of melanoma cells to recruit endothelial cells: MeWo, HT-144, SK-Mel-2, SK-Mel-334.2, 1 μM for 72 hours
Procedure: 5×10^4 cancer cells were seeded into 24-well plates approximately 24 hours prior to the start of the assay. HUVEC's were grown to 80% confluency and serum starved in EGM-2 media supplemented with 0.2% FBS for 16 hours. HUVEC's were then pulsed with Cell Tracker Red CMTPX dye (C34552, Invitrogen) for 45 minutes. Meanwhile, cancer cells were washed with PBS, 0.5 mL of 0.2% FBS EGM-2 media was added to each well, and a 3.0 μm HTS Fluoroblock insert (351151, BD Falcon, San Jose, Calif.) was placed into each well. 1×10^5 HUVEC's, resuspended in 0.5 mL of starvation media, were seeded into each trans-well insert, and the recruitment assay was allowed to proceed for 16-18 hours at 37° C. For neutralization antibody and/or recombinant protein experiments, antibody/protein was then added to each well at the appropriate concentration as indicated in the figures: 40 μg/mL anti-ApoE 1D7, 40 μg/mL anti-IgG, 100 μM rhApoE3, and 100 μM BSA. Upon completion of the assay, the inserts were processed and analyzed as described for the matrigel invasion assay above (See Matrigel Invasion Assay).
The endothelial recruitment assay was carried out as previously described (Pencheva et al., 2012; Png et al., 2012). Melanoma cells were treated with DMSO, GW3965, T0901317, or Bexarotene at 1 μM for 56 hours, after which 5×10^4 cells were seeded in a 24-well plate in the presence of each drug and allowed to attach for 16 hours prior to starting the assay. HUVEC cells were serum-starved overnight in EGM-2 media containing 0.2% FBS. The following day, 1×10^5 HUVEC cells were seeded into a 3.0 μm HTS Fluoroblock trans-well migration insert (351151, BD Falcon, San Jose, Calif.) fitted into each well containing cancer cells at the bottom. The HUVEC cells were allowed to migrate towards the cancer cells for 20 hours at 37° C., after which the inserts were processed as previously described (Pencheva et al., 2012). For ApoE antibody neutralization experiments, 40 μg/mL 1D7 anti-ApoE blocking antibody (Heart Institute, University of Ottawa, Ottawa, Canada) or 40 μg/mL anti-IgG control antibody (AB-108-C, R&D Systems, Minneapolis, Minn.) was added to each trans-well insert at the start of the assay.
Subsequently, 5×10^4 cancer cells were seeded into 24-well plates in the presence of each drug or DMSO and allowed to attach for 16 hours prior to starting the assay. Human umbilical vein endothelial cells (HUVEC cells) were serum-starved in 0.2% FBS-containing media overnight. The following day, 1×10^5 HUVEC cells were seeded into a 3.0 μm HTS Fluoroblock insert (351151, BD Falcon) fitted into each well containing the cancer cells at the bottom. The HUVEC cells were allowed to migrate towards the cancer cells for 20 hours, after which the inserts were washed in PBS, fixed in 4% PFA, labeled with DAPI, and mounted on slides. The basal side of each insert was imaged using an inverted fluorescence microscope (Zeiss Axiovert 40 CFL) at 5× magnification, and the number of DAPI-positive cells was quantified using ImageJ.

[3] = parental MeWo cells pre-treated 48 hours
[4] = recombinant ApoE3 100 μM in cell media

O=C(O)Cc1cccc(OCCCN(Cc2cccc(C(F)(F)F)c2Cl)CC(c2ccccc2)c2ccccc2)c1 [GW3965 2, 3-[3-[N-(2-Chloro-3-trifluoromethylbenzyl)-(2,2-diphenylethyl)amino]propyloxy]phenylacetic acid hydrochloride]
tumor cell invasion [1, 3]: decreased
ability of melanoma cells to recruit endothelial cells [2]: consistently suppressed
endothelial recruitment [2, 3]: decreased

CC(CCOc1cccc(CC(=O)O)c1)N(Cc1cccc(C(F)(F)F)c1Cl)CC(c1ccccc1)c1ccccc1 (centres unmarked) [SB742881 25]
inhibition of cancer progression phenotypes (cell invasion, endothelial recruitment) ([1]; MeWo cells, 1 μM for 72 hours, compared with lower potency LXR agonists): more effective

O=S(=O)(c1ccccc1)N(CC(F)(F)F)c1ccc(C(O)(C(F)(F)F)C(F)(F)F)cc1 [T0901317 1]
ability of melanoma cells to recruit endothelial cells [2]: consistently suppressed

recombinant human ApoE3: recombinant human ApoE3 (4696, BioVision)
invasion by metastatic LM2 cells [1, 4]: significantly suppressed
ability of endothelial cells to migrate towards highly metastatic cancer cells ([2]; endothelial cells pre-treated 24 hours, 100 μM): significantly reduced
endothelial recruitment by metastatic LM2 cells [2, 4]: significantly suppressed
